# Test results taken from patent US20230085307A1, “PYRIDAZINONE COMPOUND AND HERBICIDE” (NISSAN CHEMICAL CORPORATION, priority 2019, published 2023).
# Key:
# southern crabgrass = assay: Test Example 5: herbicidal effect by foliage application, plastic box (Table 20, symbol F); type: in vivo, southern crabgrass (Digitaria ciliaris); conditions: foliage application, 320 g/ha, three weeks after application
# Procedure, shortened: (§1)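 Post-emergence foliar test in sterilized diluvial soil. Compound applied as water-diluted emulsion at a predetermined rate to 14-day-old plants; evaluation at three weeks.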
# green foxtail = assay: Test Example 4: herbicidal effect by soil treatment (Table 19, symbol G); type: in vivo, green foxtail (Setaria viridis); conditions: amount of applied herbicide 320 g/ha
# Procedure, shortened: (§2)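 Emulsion of test compound, water-diluted to predetermined amount, sprayed on soil after sowing (seed depth ~1.5 cm, sterilized diluvial soil). Greenhouse, 25–30° C. Effect graded at three weeks post-spray.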
# windgrass [1] = assay: Test Example 4: herbicidal effect by soil treatment (Table 19, symbol L); type: in vivo, windgrass (Apera spica-venti); conditions: amount of applied herbicide 320 g/ha
# Procedure, shortened: as §2
# velvetleaf [2] = assay: Test Example 5: herbicidal effect by foliage application, plastic box (Table 20, symbol M); type: in vivo, velvetleaf (Abutilon theophrasti); conditions: foliage application, 320 g/ha, three weeks after application
# Procedure, shortened: as §1
# Italian ryegrass = assay: Test Example 5: herbicidal effect by foliage application, plastic box (Table 20, symbol K); type: in vivo, Italian ryegrass (Lolium multiflorum); conditions: foliage application, 320 g/ha, three weeks after application
# Procedure, shortened: as §1
# oval-leafed pondweed = assay: Test Example 1: herbicidal activity, application before weed generation under submerged conditions (Table 16, symbol C); type: in vivo, oval-leafed pondweed (Monochoria vaginalis); conditions: amount of applied herbicide 320 g/ha
# Procedure, shortened: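 Alluvial soil was flooded to 4 cm depth, weed seeds were sown mixed and 2.5-leaf rice seedlings were transplanted. On sowing day, the compound's emulsion, diluted in water to a set dose, was applied to the water surface. Plants grew at 25–30 °C and were scored 0–5 after three weeks.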
# persian speedwell [3] = assay: Test Example 5: herbicidal effect by foliage application, plastic box (Table 20, symbol R); type: in vivo, Persian speedwell (Veronica persica); conditions: foliage application, 320 g/ha, three weeks after application
# Procedure, shortened: as §1
# persian speedwell [4] = assay: Test Example 4: herbicidal effect by soil treatment (Table 19, symbol R); type: in vivo, Persian speedwell (Veronica persica); conditions: amount of applied herbicide 320 g/ha
# Procedure, shortened: as §2
# velvetleaf [5] = assay: Test Example 4: herbicidal effect by soil treatment (Table 19, symbol M); type: in vivo, velvetleaf (Abutilon theophrasti); conditions: amount of applied herbicide 320 g/ha
# Procedure, shortened: as §2
# lambsquarters [6] = assay: Test Example 4: herbicidal effect by soil treatment (Table 19, symbol O); type: in vivo, lambsquarters (Chenopodium album); conditions: amount of applied herbicide 320 g/ha
# Procedure, shortened: as §2
# Chinese sprangletop = assay: Test Example 3: herbicidal effect by foliage application, Wagner pot (Table 18, symbol D); type: in vivo, chinese sprangletop (Leptochloa chinensis); conditions: amount of applied herbicide 320 g/ha
# Procedure, shortened: (§3)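 Plants were sown in alluvial soil held under 0.1–0.5 cm standing water and grown 14 days in a greenhouse at 25–30 °C. An emulsifiable formulation, water-diluted to the set dose, was then sprayed onto the foliage, and effects were scored three weeks later using previously defined criteria.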
# windgrass [7] = assay: Test Example 5: herbicidal effect by foliage application, plastic box (Table 20, symbol L); type: in vivo, windgrass (Apera spica-venti); conditions: foliage application, 320 g/ha, three weeks after application
# Procedure, shortened: as §1
# chickweed = assay: Test Example 4: herbicidal effect by soil treatment (Table 19, symbol P); type: in vivo, common chickweed (Stellaria media); conditions: amount of applied herbicide 320 g/ha
# Procedure, shortened: as §2
# rice flat sedge = assay: Test Example 3: herbicidal effect by foliage application, Wagner pot (Table 18, symbol E); type: in vivo, rice flat sedge (Cyperus iria); conditions: amount of applied herbicide 320 g/ha
# Procedure, shortened: as §3
# late watergrass = assay: Test Example 2: herbicidal activity, application during weed generation under submerged conditions (Table 17, symbol A); type: in vivo, late watergrass (Echinochloa oryzicola); conditions: AAH 320 g/ha; application during weed generation, submerged conditions
# Procedure, shortened: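 In this pot test, flooded alluvial soil (water depth 4 cm) holds all three species sown as a mixture. Once seedlings have one to two leaves, the compound's emulsion, thinned with water to the intended dose, is poured on the water; grading follows after three weeks on the earlier criteria.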
# lambsquarters [8] = assay: Test Example 5: herbicidal effect by foliage application, plastic box (Table 20, symbol O); type: in vivo, lambsquarters (Chenopodium album); conditions: foliage application, 320 g/ha, three weeks after application
# Procedure, shortened: as §1
# barnyard grass = assay: Test Example 3: herbicidal effect by foliage application, Wagner pot (Table 18, symbol H); type: in vivo, barnyard grass (Echinochloa crus-galli); conditions: amount of applied herbicide 320 g/ha
# Procedure, shortened: as §3
SMILES,"F: southern crabgrass, herbicidal effect grade (southern crabgrass)","herbicidal effect, G: green foxtail (green foxtail)","herbicidal effect, L: windgrass (windgrass [1])","M: velvetleaf, herbicidal effect grade (velvetleaf [2])","K: Italian ryegrass, herbicidal effect grade (Italian ryegrass)","Herbicidal effect, C: oval-leafed pondweed (oval-leafed pondweed)","R: persian speedwell, herbicidal effect grade (persian speedwell [3])","herbicidal effect, R: persian speedwell (persian speedwell [4])","herbicidal effect, M: velvetleaf (velvetleaf [5])","herbicidal effect, O: lambsquarters (lambsquarters [6])",herbicidal effect on D: Chinese sprangletop (Chinese sprangletop),"L: windgrass, herbicidal effect grade (windgrass [7])","herbicidal effect, P: chickweed (chickweed)",herbicidal effect on E: rice flat sedge (rice flat sedge),"herbicidal effect rating, A: late watergrass (late watergrass)","O: lambsquarters, herbicidal effect grade (lambsquarters [8])",herbicidal effect on H: barnyard grass (barnyard grass),other results
CCCC(=O)Oc1c(C)nn(C)c(=O)c1-c1c(-c2ccc(F)cc2OCC)sc2cc(F)ccc12 [3-012],5 (Herbicidal rate of 90% or more (almost completely withered)),3 (Herbicidal rate of 40% or more and less than 70%),5 (Herbicidal rate of 90% or more (almost completely withered)),5 (Herbicidal rate of 90% or more (almost completely withered)),4 (Herbicidal rate of 70% or more and less than 90%),4 (Herbicidal rate of 70% or more and less than 90%),5 (Herbicidal rate of 90% or more (almost completely withered)),5 (Herbicidal rate of 90% or more (almost completely withered)),0 (Herbicidal rate of 5% or less (almost no effect)),3 (Herbicidal rate of 40% or more and less than 70%),2 (Herbicidal rate of 20% or more and less than 40%),5 (Herbicidal rate of 90% or more (almost completely withered)),4 (Herbicidal rate of 70% or more and less than 90%),5 (Herbicidal rate of 90% or more (almost completely withered)),4 (Herbicidal rate of 70% or more and less than 90%),4 (Herbicidal rate of 70% or more and less than 90%),5 (Herbicidal rate of 90% or more (almost completely withered)),
Cc1nn(C)c(=O)c(-c2c(-c3ccc4c(c3)OCCO4)sc3cc(F)ccc23)c1O [3-013],4 (Herbicidal rate of 70% or more and less than 90%),4 (Herbicidal rate of 70% or more and less than 90%),0 (Herbicidal rate of 5% or less (almost no effect)),4 (Herbicidal rate of 70% or more and less than 90%),1 (Herbicidal rate of 5% or more and less than 20%),2 (Herbicidal rate of 20% or more and less than 40%),5 (Herbicidal rate of 90% or more (almost completely withered)),5 (Herbicidal rate of 90% or more (almost completely withered)),3 (Herbicidal rate of 40% or more and less than 70%),5 (Herbicidal rate of 90% or more (almost completely withered)),4 (Herbicidal rate of 70% or more and less than 90%),0 (Herbicidal rate of 5% or less (almost no effect)),4 (Herbicidal rate of 70% or more and less than 90%),5 (Herbicidal rate of 90% or more (almost completely withered)),0 (Herbicidal rate of 5% or less (almost no effect)),5 (Herbicidal rate of 90% or more (almost completely withered)),4 (Herbicidal rate of 70% or more and less than 90%),
CCCC(=O)Oc1c(C)nn(C)c(=O)c1-c1c(-c2ccc3c(c2)OCCO3)sc2cc(F)ccc12 [3-014],3 (Herbicidal rate of 40% or more and less than 70%),0 (Herbicidal rate of 5% or less (almost no effect)),0 (Herbicidal rate of 5% or less (almost no effect)),5 (Herbicidal rate of 90% or more (almost completely withered)),1 (Herbicidal rate of 5% or more and less than 20%),5 (Herbicidal rate of 90% or more (almost completely withered)),5 (Herbicidal rate of 90% or more (almost completely withered)),5 (Herbicidal rate of 90% or more (almost completely withered)),0 (Herbicidal rate of 5% or less (almost no effect)),4 (Herbicidal rate of 70% or more and less than 90%),0 (Herbicidal rate of 5% or less (almost no effect)),0 (Herbicidal rate of 5% or less (almost no effect)),4 (Herbicidal rate of 70% or more and less than 90%),4 (Herbicidal rate of 70% or more and less than 90%),3 (Herbicidal rate of 40% or more and less than 70%),5 (Herbicidal rate of 90% or more (almost completely withered)),5 (Herbicidal rate of 90% or more (almost completely withered)),
CCOC(=O)Oc1c(C)nn(C)c(=O)c1-c1c(-c2ccccc2OC)sc2cc(F)ccc12 [3-024],1 (Herbicidal rate of 5% or more and less than 20%),,,5 (Herbicidal rate of 90% or more (almost completely withered)),4 (Herbicidal rate of 70% or more and less than 90%),0 (Herbicidal rate of 5% or less (almost no effect)),1 (Herbicidal rate of 5% or more and less than 20%),,,,3 (Herbicidal rate of 40% or more and less than 70%),5 (Herbicidal rate of 90% or more (almost completely withered)),,5 (Herbicidal rate of 90% or more (almost completely withered)),2 (Herbicidal rate of 20% or more and less than 40%),4 (Herbicidal rate of 70% or more and less than 90%),5 (Herbicidal rate of 90% or more (almost completely withered)),"G: green foxtail, herbicidal effect grade (green foxtail): 3 (Herbicidal rate of 40% or more and less than 70%); L: windgrass, herbicidal effect grade (windgrass [1]): 3 (Herbicidal rate of 40% or more and less than 70%); R: persian speedwell, herbicidal effect grade (persian speedwell [4]): 0 (Herbicidal rate of 5% or less (almost no effect)); M: velvetleaf, herbicidal effect grade (velvetleaf [5]): 3 (Herbicidal rate of 40% or more and less than 70%); O: lambsquarters, herbicidal effect grade (lambsquarters [6]): 4 (Herbicidal rate of 70% or more and less than 90%); P: chickweed, herbicidal effect grade (chickweed): 3 (Herbicidal rate of 40% or more and less than 70%)"
